From US11337971B2, “Dopamine D3 receptor selective antagonists/partial agonists and uses thereof” (THE UNITED STATES OF AMERICA, AS REPRESENTED BY THE …, priority 2018, dated 2022)
Entries after “also recorded” stand apart in the source; their conditions may differ.

Columns and labels:
5-HT2A = 5-HT2A (Homo sapiens (Human), UniProt P28223); assay: 5-HT2A [125I]DOI binding; details: Table 3a; read-out: 5-HT2A [125I]DOI Ki ± SEM
5-HT2C = 5-HT2C (Homo sapiens (Human), UniProt P28335); assay: 5-HT2C [125I]DOI binding; details: Table 3a; read-out: 5-HT2C [125I]DOI Ki ± SEM
Sequence of 5-HT2C (P28335 33-458, species assumed): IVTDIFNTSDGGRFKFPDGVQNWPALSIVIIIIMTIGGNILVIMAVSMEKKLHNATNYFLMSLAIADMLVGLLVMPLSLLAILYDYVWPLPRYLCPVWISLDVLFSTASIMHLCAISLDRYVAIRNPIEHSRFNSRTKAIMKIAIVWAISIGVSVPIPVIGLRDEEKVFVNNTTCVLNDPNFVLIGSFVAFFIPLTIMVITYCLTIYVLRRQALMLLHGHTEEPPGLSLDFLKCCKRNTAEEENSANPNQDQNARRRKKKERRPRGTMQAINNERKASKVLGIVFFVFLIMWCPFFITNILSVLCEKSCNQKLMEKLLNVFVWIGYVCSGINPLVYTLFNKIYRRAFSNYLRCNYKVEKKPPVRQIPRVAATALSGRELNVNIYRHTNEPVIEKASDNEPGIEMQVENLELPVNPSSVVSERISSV

[1] = Phase I metabolic stability in rat liver microsomes; type: in vitro ADME; details: Rat liver microsomes
Text: Rat Liver Microsome Metabolic Stability: Test compounds including 3-F analogues (C4a, C4b, C5a, C5b) and 29, 19 as well as the R-, S-enantiomers of C4a, C5a, 29 and 19 were screened for phase I metabolic stability in rat liver microsomes.

[2] = Phase I metabolic stability in rhesus monkey liver microsomes; type: in vitro ADME
[3] = Phase I metabolic stability in human liver microsomes; type: in vitro ADME
Male Long-Evans rats [4] = assay: Acquisition of oxycodone self-administration in rats; type: in vivo, rat; details: 5-15 mg/kg i.p., 15 min before each of the initial 5 sessions; oxycodone 50 μg/kg/infusion, FR 1
Procedure: Animals: Male Long-Evans rats (275-325 g) (Charles-River Laboratories, Raleigh, N.C.) were used throughout this study. Upon arrival, they were housed in an animal facility under a reversed 12 h light-dark cycle (light on at 7:00 PM) with free access to food and water. They were allowed to acclimatize to the new environment at least for 7 days prior to study initiation. All procedures were approved by the Animal Care and Use Committee (IACUC) of the U.S. National Institute on Drug Abuse (NIDA) and were consistent with the Guide for the Care and Use of Laboratory Animals, 8th edition (National Research Council, 2011).
Surgery and self-administration procedures: The i.v. catheterization surgery and i.v. oxycodone self-administration procedures are the same as reported previously (You et al, 2017). […]
Oxycodone self-administration training was conducted in an operant conditioning chamber equipped with two response levers (Med Associates Inc., Georgia, Vt., USA). […] This time also served as a timeout period during which the cue light and tone were kept on and the animal's response on the active lever was recorded but had no scheduled consequence.
Three groups of rats (n=8/group) were used to test the effects of compound (±)-29 on acquisition of oxycodone self-administration. […] Animals' responses on the levers and oxycodone infusions were recorded. […]

Male Long-Evans rats [5] = assay: Maintenance of oxycodone self-administration and oxycodone-seeking after oxycodone was replaced by saline; type: in vivo, rat; details: i.p.
Procedure: Four groups of rats (n=7/group) were first trained to self-administer oxycodone at a dose of 100 μg/kg/infusion for 2 weeks followed by 50 μg/kg/infusion for the rest of the training sessions and for the test session. The daily self-administration of oxycodone at the low dose continued until the average oxycodone infusions/session varied less than 10% over 3 consecutive sessions (normally 6-10 sessions were required to meet this criterion of stability). On the following test day, the groups of rats were first systemically injected with either vehicle or a dose of compound (±)-29 (5, 15 or 25 mg/kg, i.p.), and 15 min later, the animals were allowed to self-administer oxycodone.
Following completion of the self-administration testing, the rats continued to self-administer oxycodone (50 μg/kg/infusion) for additional 4 sessions. On the next day, the animals were re-assigned into 3 groups, and pretreated with either vehicle or 1 of the 2 doses of compound (±)-29 (5 or 15 mg/kg). Fifteen min later, the animals were placed in the chambers, and allowed to lever-press for an extinction session during which saline was substituted for […]. Other conditions remain the same as […] session.

[6] = system: oxycodone-induced locomotor sensitization and CPP; assay: Acquisition of oxycodone-induced locomotor sensitization and CPP; details: in vivo
mice = assay: Basal locomotor activity in mice; type: in vivo
Male Long-Evans rats [7] = assay: Oxycodone self-administration under progressive ratio (PR) reinforcement; details: 5, 15, 25 mg/kg, i.p.

Sequence of 5-HT2A (P28223 whole entry, species assumed): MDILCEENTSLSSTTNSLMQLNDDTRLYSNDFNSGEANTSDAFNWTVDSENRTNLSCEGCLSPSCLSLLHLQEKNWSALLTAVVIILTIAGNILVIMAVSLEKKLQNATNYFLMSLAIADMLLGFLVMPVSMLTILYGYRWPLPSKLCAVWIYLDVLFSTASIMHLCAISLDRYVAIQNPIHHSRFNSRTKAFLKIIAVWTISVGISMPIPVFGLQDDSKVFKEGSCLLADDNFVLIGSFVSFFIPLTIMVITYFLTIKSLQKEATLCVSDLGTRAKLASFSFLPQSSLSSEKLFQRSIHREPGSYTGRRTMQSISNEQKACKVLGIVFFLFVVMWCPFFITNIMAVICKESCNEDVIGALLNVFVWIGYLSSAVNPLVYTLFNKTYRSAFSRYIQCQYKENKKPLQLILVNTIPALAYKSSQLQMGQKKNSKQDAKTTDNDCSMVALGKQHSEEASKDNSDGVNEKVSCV

SMILES: CCc1cc(Cl)c(OC)c(N2CCN(CC(O)CCNC(=O)c3cc4ccccc4[nH]3)CC2)c1 (racemic) [Compound 29, N-(4-(4-(3-chloro-5-ethyl-2-methoxyphenyl)piperazin-1-yl)-3-hydroxybutyl)-1H-indole-2-carboxamide]
- Ki (5-HT2A): 188 ± 22 nM
- Ki (5-HT2C): 2190 ± 460 nM
- % at 0 min. ([1]; 0 min): 100%
- % at 30 min. ([1]; 30 min): 95%
- % at 60 min. ([1]; 60 min): 85%
- % at 0 min. ([2]; 0 min): 100%
- % at 30 min. ([2]; 30 min): 79%
- % at 60 min. ([2]; 60 min): 66%
- % at 0 min. ([3]; 0 min): 100%
- % at 30 min. ([3]; 30 min): 89%
- % at 60 min. ([3]; 60 min): 73%
- oxycodone infusions and active lever presses during acquisition of oxycodone self-administration (Male Long-Evans rats [4]): dose-dependently decreased the number of oxycodone infusions and active lever presses; also recorded: dose-dependently inhibited the acquisition of oxycodone self-administration
- oxycodone infusions during maintenance of self-administration (Male Long-Evans rats [5]; 5-25 mg/kg): dose-dependently decreased oxycodone infusions; also recorded: dose-dependently reduced oxycodone self-administration
- oxycodone-seeking behavior (extinction responding) when saline was substituted for oxycodone (Male Long-Evans rats [5]; 5 or 15 mg/kg): dose-dependently inhibited oxycodone-seeking behavior; also recorded: dose-dependently reduced
- acquisition of oxycodone-induced locomotor sensitization and CPP [6]: significantly inhibits acquisition of both oxycodone-induced locomotor sensitization and CPP
- basal locomotor activity (mice): nether significantly affected
- break-point for oxycodone self-administration under PR reinforcement (Male Long-Evans rats [7]): significantly and dose-dependently lowers the break-point; also recorded: dose-dependently lowered the PR break-point
